Reference: US7445803B2, “Chromium (III) alpha amino acid complexes” (priority 2002, dated 2008)
Like-named read-outs stand apart in the source and are kept apart here.

Tests used:
[1] = after oral administration; cited from earlier work
rats = details: cited from earlier work
[2] = Stability on addition of 0.1 molar sodium bicarbonate (precipitate formation); type: physicochemical
Protocol: (§1) A 10 ml portion was diluted with 200 ml of a 0.1 molar solution of sodium bicarbonate. […] An additional 600 ml of 0.1 molar sodium bicarbonate solution was added.
(§2) A 10 ml portion was diluted with 200 ml of a 0.1 molar solution of sodium bicarbonate.
as §2

[3] = pH of aqueous solution of the complex; type: physicochemical; details: 0.1 molar in water
Protocol: as §1, §2, §2

[4] = tested on: periparturient dairy cows
Excerpt: The effects of supplementation with chromium in the form of chromium tri-L-methionine hydrochloride on performance of periparturient dairy cows were studied. Seventy-two cows were used to determine whether milk production and dry matter intake were affected by chromium tri-L-methionine hydrochloride supplementation of the diet during the periparturient period. Cows were fed either a diet high in nonforage fiber sources or high in non-fiber carbohydrates from day 21 before expected parturition until parturition and then fed a common lactating diet. Chromium tri-L-methionine hydrochloride was supplemented once daily via gelcap at doses of 0, 0.03, or 0.06 mg Cr/kg of metabolic body weight. Chromium supplementation began on day 21 before expected parturition and continued until day 28 postpartum. Cows were milked after calving according to established procedures. Feed intake was recorded daily for each cow throughout the experiment. Samples of the diet were obtained weekly and the dry matter contents were determined. Individual milk weights were recorded at each milking during the lactating phase of the experiment. Milk samples were taken from all milkings during one 24-hours period each week, composited based on the amount of milk produced at each milking, and analyzed for fat, protein, lactose, and total solids.

rat [5] = tested on: rat
Protocol: Fifty 6 weeks old rats were used in the study (25 females and 25 males). Their body weight ranged from 130 to 220 g for males and 120-190 g for females. The animals were housed in polycarbonate cages over dust-free sawdust bedding in groups of five. The cages were placed in an air-conditioned room at 22° C. and 55% relative humidity. Rats were fed pelleted complete diet ad libitum. Animals were fasted overnight before dosing and given food 3-4 hours after dosing. Animals given water ad libitum. Animals were assigned at random to one of five treatments. Two groups of five animals each, one group of males and one group of females were assigned to each treatment. The treatments were control, 250 mg/kg, 500 mg/kg, 1000 mg/kg and 2000 mg/kg doses. A solution of the compound in water was administered in a single oral dose by gastric gavage. Animals were maintained for a 14-day observation period after receiving the dose. Surviving animals were killed on day 14. The weight of animals were recorded immediately before treatment, twice weekly for the study period and at death.

[6] = tested on: rat isolated adipose tissue; details: cited from earlier work
rat [7] = details: added to rat diet; cited from earlier work
[8] = tested on: Chinese hamster ovary cells; details: cited from earlier work
DNA = details: cited from earlier work
[9] = cited from earlier work
Humans = details: dietary supplementation, males and females; cited from earlier work
[10] = tested on: rat skeletal muscle cultures; details: rat skeletal muscle cultures in vitro; cited from earlier work
[11] = slightly more than 2 equivalents of 0.1 molar sodium bicarbonate to a 0.1M solution
[12] = 10 ml of 0.1 molar solution + 200 ml 0.1 molar sodium bicarbonate (20 molar equivalents)
[13] = additional 600 ml 0.1 molar sodium bicarbonate (80 molar equivalents in all)

CC(=O)/C=C(/C)[O-].CC(=O)/C=C(/C)[O-].CC(=O)/C=C(/C)[O-].[Cr+3] [Chromium Acetylacetonate]
absorption from the gastrointestinal tract [1]: rapidly absorbed

[Cl][Cr]([Cl])[Cl] [chromium chloride, reference compound]
toxicity in rats (rats; rats): lack of toxicity | pH of the mixture [2, 11]: 4.356 | precipitate formation [2, 11]: voluminous precipitate

Chromium (III) Tri-leucinate Hydrochloride [Example 2]
pH of a 0.1 molar solution in water [3]: 3.996 | pH of the solution after sodium bicarbonate [2, 12]: 7.987 | precipitate formation [2, 12]: No precipitate was formed

Chromium (III) Tri-methionate Hydrochloride [Example 1]
% Milk Fat ([4]; 0.03 mg/kg BW^.75): 4.41% | % Milk Lactose ([4]; 0.03 mg/kg BW^.75): 4.69% | % Milk Protein ([4]; 0.03 mg/kg BW^.75): 3.37% | % Milk Solids ([4]; 0.03 mg/kg BW^.75): 13.39% | Milk Fat ([4]; 0.03 mg/kg BW^.75): 1.76 kg/day | Milk Lactose ([4]; 0.03 mg/kg BW^.75): 1.91 kg/day | Milk Production ([4]; 0.03 mg/kg BW^.75): 40.6 kg/day | Milk Protein ([4]; 0.03 mg/kg BW^.75): 1.33 kg/day | Milk Solids ([4]; 0.03 mg/kg BW^.75): 5.37 kg/day | Postpartum Dry Matter Intake ([4]; 0.03 mg/kg BW^.75): 18.9 kg/day | Prepartum Dry Matter Intake ([4]; 0.03 mg/kg BW^.75): 13.9 kg/day | % Milk Fat ([4]; 0.06 mg/kg BW^.75): 4.33% | % Milk Lactose ([4]; 0.06 mg/kg BW^.75): 4.61% | % Milk Protein ([4]; 0.06 mg/kg BW^.75): 3.15% | % Milk Solids ([4]; 0.06 mg/kg BW^.75): 13.03% | Milk Fat ([4]; 0.06 mg/kg BW^.75): 1.81 kg/day | Milk Lactose ([4]; 0.06 mg/kg BW^.75): 1.98 kg/day | Milk Production ([4]; 0.06 mg/kg BW^.75): 42.8 kg/day | Milk Protein ([4]; 0.06 mg/kg BW^.75): 1.31 kg/day | Milk Solids ([4]; 0.06 mg/kg BW^.75): 5.51 kg/day | Postpartum Dry Matter Intake ([4]; 0.06 mg/kg BW^.75): 19.4 kg/day | Prepartum Dry Matter Intake ([4]; 0.06 mg/kg BW^.75): 13.7 kg/day | effect on dry matter intake in cows ([4]; diet supplementation, 0.03 or 0.06 mg Cr/kg metabolic body weight): did not affect | pH of a 0.1 molar solution in water [3]: 4.078 | pH of the solution after sodium bicarbonate [2, 12]: 8.097 | precipitate formation [2, 12]: No precipitate was formed | pH of the solution after sodium bicarbonate [2, 13]: 8.354 | precipitate formation [2, 13]: No precipitate was formed | body weight gain (rat [5]; 2000 mg/kg dose, 4000 folds the recommended dose): slight decrease | food consumption compared to control (rat [5]; 1000 and 2000 mg/kg doses): dose related decrease | gain in body weight (rat [5]; dose 2000 folds the recommended dose): not associated with a decrease | toxicity in rats (rat [5]; doses used / high doses): non-toxic | decrease in body weight gain (rat [5]; male rats, 2000 mg/kg single oral dose): 5% | macroscopic abnormalities at necropsy (rat [5]; necropsied on day 14 after the oral dose): no macroscopic abnormalities | mortality (rat [5]; single oral dose 250-2000 mg/kg, 14-day observation): No animals died | treatment-related clinical signs (rat [5]; single oral dose, any of the dose levels (250-2000 mg/kg)): no treatment-related clinical signs | toxicity (rat [5]; single oral dose, dose levels 1000 folds the recommended dose in pigs): did not induce any toxicity

chromium dinicotinate
insulin activity [6]: potentiated

chromium picolinate
glycation of hemoglobin (rat [7]): prevented | plasma glucose (rat [7]): significant decrease | chromosome damage [8]: produces chromosome damage | DNA cleavage (DNA): cleaves DNA | toxicity in rats (rats; rat, in vivo): lack of toxicity | water solubility [9]: limited | lean body mass (Humans): significant increase | glucose uptake [10]: increased
